Reference: US10898561B2, “Peptides and combination of peptides for use in immunotherapy against pancreatic cancer and other cancers” (IMMATICS BIOTECHNOLOGIES GMBH, priority 2015, dated 2021)

What was measured:
[1] = target: HLA-A*02:01 (Homo sapiens, UniProt P04439, D140Y/D185E/D98H/E176V/E277Q/G131W/G231S/I119V/I121R/I166T/I218V/L300P/L318F/N151K/N90K/P208A/P217A/Q86G/Q94H/R138H/R169H/T345S); test: MHC binding assay: UV-ligand exchange with beta2m ELISA; settings: MHC class I binding score, yield of UV-ligand exchange
Text: Candidate peptides for T cell based therapies according to the present invention were further tested for their MHC binding capacity (affinity). The individual peptide-MHC complexes were produced by UV-ligand exchange, where a UV-sensitive peptide is cleaved upon UV-irradiation, and exchanged with the peptide of interest as analyzed. Only peptide candidates that can effectively bind and stabilize the peptide-receptive MHC molecules prevent dissociation of the MHC complexes. To determine the yield of the exchange reaction, an ELISA was performed based on the detection of the light chain (β2m) of stabilized MHC complexes. The assay was performed as generally described in Rodenko et al. (Rodenko et al., 2006).
96 well MAXISorp plates (NUNC) were coated over night with 2 ug/ml streptavidin in PBS at room temperature, washed 4× and blocked for 1 h at 37° C. in 2% BSA containing blocking buffer. Refolded HLA-A*02:01/MLA-001 monomers served as standards, covering the range of 15-500 ng/ml. Peptide-MHC monomers of the UV-exchange reaction were diluted 100 fold in blocking buffer. Samples were incubated for 1 h at 37° C., washed four times, incubated with 2 ug/ml HRP conjugated anti-β2m for 1 h at 37° C., washed again and detected with TMB solution that is stopped with […]. Absorption was measured at 450 nm. Candidate peptides that show a high exchange yield (preferably higher than 50%, most preferred higher than 75%) are generally preferred for a generation and production of antibodies or fragments thereof, and/or T cell receptors or fragments thereof, as they show sufficient avidity to the MHC molecules and prevent dissociation of the MHC complexes.

[2] = tested on: CD8+ T cells; test: In vitro T-cell priming assay with aAPCs loaded with peptide/MHC complexes and anti-CD28 antibody, multimer readout; assay type: cell-based, human; settings: in vitro immunogenicity, healthy HLA-A*02 donors; for donors: positive donors; for wells: positive wells
Text: In order to obtain information regarding the immunogenicity of the TUMAPs of the present invention, the inventors performed investigations using an in vitro T-cell priming assay based on repeated stimulations of CD8+ T cells with artificial antigen presenting cells (aAPCs) loaded with peptide/MHC complexes and anti-CD28 antibody.
In order to perform in vitro stimulations by artificial antigen presenting cells loaded with peptide-MHC complex (pMHC) and anti-CD28 antibody, the inventors first isolated CD8+ T cells from fresh HLA-A*02 leukapheresis products via positive selection using CD8 microbeads (Miltenyi Biotec, Bergisch-Gladbach, Germany) of healthy donors obtained from the University clinics Mannheim, Germany, after informed consent.
PBMCs and isolated CD8+ lymphocytes were incubated in T-cell medium (TCM) until use consisting of RPMI-Glutamax (Invitrogen, Karlsruhe, Germany) supplemented with 10% heat inactivated human AB serum (PAN-Biotech, Aidenbach, Germany), 100 U/ml Penicillin/100 μg/ml Streptomycin (Cambrex, Cologne, Germany), 1 mM sodium pyruvate (CC Pro, Oberdorla, Germany), 20 μg/ml Gentamycin (Cambrex). 2.5 ng/ml IL-7 (PromoCell, Heidelberg, Germany) and 10 U/ml IL-2 (Novartis Pharma, Nürnberg, Germany) were also added to the TCM at this step.
Generation of pMHC/anti-CD28 coated beads, T-cell stimulations and readout was performed in a highly defined in vitro system using four different pMHC molecules per stimulation condition and 8 different pMHC molecules per readout condition.
The purified co-stimulatory mouse IgG2a anti human CD28 Ab 9.3 (Jung et al., 1987) was chemically biotinylated using Sulfo-N-hydroxysuccinimidobiotin as recommended by the manufacturer (Perbio, Bonn, Germany). Beads used were 5.6 μm diameter streptavidin coated polystyrene particles (Bangs Laboratories, Ill., USA).
800.000 beads/200 μl were coated in 96-well plates in the presence of 4×12.5 ng different biotin-pMHC, washed and 600 ng biotin anti-CD28 were added subsequently in a volume of 200 μl. Stimulations were initiated in 96-well plates by co-incubating 1×10^6 CD8+ T cells with 2×10^6 washed coated beads in 200 μl TCM supplemented with 5 ng/ml IL-12 (PromoCell) for 3 days at 37° C. Half of the medium was then exchanged by fresh TCM supplemented with 80 U/ml IL-2 and incubating was continued for 4 days at 37° C. This stimulation cycle was performed for a total of three times. For the pMHC multimer readout using 8 different pMHC molecules per condition, a two-dimensional combinatorial coding approach was used as previously described (Andersen et al., 2012) with minor modifications encompassing coupling to 5 different fluorochromes. Finally, multimeric analyses were performed by staining the cells with Live/dead near IR dye (Invitrogen, Karlsruhe, Germany), CD8-FITC antibody clone SK1 (BD, Heidelberg, Germany) and fluorescent pMHC multimers. For analysis, a BD LSRII SORP cytometer equipped with appropriate lasers and filters was used. Peptide specific cells were calculated as percentage of total CD8+ cells. Evaluation of multimeric analysis was done using the FlowJo software (Tree Star, Oregon, USA). In vitro priming of specific multimer+CD8+ lymphocytes was detected by comparing to negative control stimulations.

Substance | Peptide exchange [1] | Wells positive [%] [2] | donors [2] | wells [2]
69 (VMAPFTMTI; listed as Homo sapiens) [compound 69] | – | – | ++++ (>=70% = ++++) | ++ (20%-49% = ++)
37 (GLLKKINSV; listed as Homo sapiens) [compound 37] | ++ (20%-49% = ++) | + (<20% = +) | – | –
50 (ALAAILTRL; listed as Homo sapiens) [compound 50] | +++ (50%-75% = +++) | +++ (50%-69% = +++) | – | –
87 (LLLGSPAAA; listed as Homo sapiens) [compound 87] | – | – | +++ (50%-69% = +++) | + (<20% = +)

Continued, in another order:

Peptide exchange [1] | Substance | Wells positive [%] [2] | donors [2] | wells [2]
+++ (50%-75% = +++) | 3 (ALLTFMEQV; listed as Homo sapiens) [compound 3] | ++ (20%-49% = ++) | – | –
++ (20%-49% = ++) | 23 (SLSAFTLFL; listed as Homo sapiens) [compound 23] | ++ (20%-49% = ++) | – | –
++ (20%-49% = ++) | 20 (RLAGDGVGAV; listed as Homo sapiens) [compound 20] | ++++ (>=70% = ++++) | – | –
++++ (>=75% = ++++) | 34 (MLMPVHFLL; listed as Homo sapiens) [compound 34] | + (<20% = +) | – | –
++ (20%-49% = ++) | 21 (HLMDQPLSV; listed as Homo sapiens) [compound 21] | + (<20% = +) | – | –
